This is an account of results in patent US20060051739A1, “Methods and composition for visualizing and interfering with chromosomal tethering of extrachromosomal molecules” (Salk Institute for Biological Studies, priority 2000, published 2006).

The subject of the experiment is COLO320DM cells with lacO/lacR-GFP labelled DMs. Description: Microtubule inhibitor treatment of cells with lacO/lacR-GFP labelled DMs, immunofluorescence microscopy. In kind it is cell-based, human. To be noted: for appearance of microtubules (immunofluorescence): taxol 10 μM or vinblastine 10 μg/ml for 3 hours prior to harvesting, anti α-tubulin staining; for chromosome organization / association of DMs with chromosomes / peripheral localization of DMs on mitotic chromosomes: taxol 10 μM or vinblastine 10 μg/ml for 3 hours; for chromosome organization: DAPI counterstain; for association of DMs with chromosomes / peripheral localization of DMs on mitotic chromosomes: DMs visualized by lacR-GFP. An excerpt: Visualizing DM-integrated and free EBV vectors by in vivo lacR-GFP staining: One of the established cell lines, containing DMs tagged with lacO repeat, was infected with lacR-GFP retrovirus. The infected cells were subcloned by limited dilution to obtain sublines in which DMs are more uniformly labelled with lacR-GFP. For time lapse imaging, the same cell line was infected with H2B-CFP and lacR-YFP viruses simultaneously, and the double-labelled cells were subcloned by limited dilution.
Immunofluorescence staining: Cells were harvested by gentle pipetting, attached to slide glasses by cytospin (500 rpm, 1 minute, Shandon, Pittsburgh, Pa.), and fixed with 3.7% formaldehyde for 10 minutes. When indicated, cells were treated with either taxol (10 μM paclitaxel, Sigma Chemical Co., St. Louis, Mo.) or vinblastine (10 μg/ml, Sigma) for 3 hours prior to harvesting them in order to disrupt microtubules. Slides were washed with PBS three times, and treated with blocking buffer (2.5% BSA, 0.2M glycine, 0.1% TritonX-100) for 30 minutes.
Primary and secondary antibodies were diluted in the blocking buffer. Primary antibodies were rabbit anti EBNA-1 serum K67-3 (1:1000, kindly provided by Dr. Jaap Middeldorp, Free University Hospital, Amsterdam, the Netherlands), human CREST autoantiserum hACA-M (for detecting centromeres, 1:2000 dilution) (Sullivan et al., 1994), and monoclonal anti α-tubulin (for detecting microtubules, 1:2000 dilution, Sigma). Following incubation for 60 minutes at room temperature, glass slides were washed three times with PBS. Secondary antibodies were Texas-Red conjugated anti-rabbit IgG (1:500, Jackson ImmunoResearch, West Grove, Pa.), Cy5 conjugated goat anti-human IgG (1:1000, Amersham, Piscataway, N.J.), and rhodamine conjugated anti mouse IgG (1:1000, Boehringer Mannheim), respectively. Following incubation for 60 minutes at room temperature, slides were washed three times with PBS, and chromosomes were counterstained with DAPI (1 μg/ml). Fluorescence of lacR-GFP was preserved well by this protocol.
Microscopy: All images appearing in the Figures were collected using a DeltaVision microscope system (Applied Precision Inc. Issaquah, Wash.) with either a 63×/NA 1.4 or a 100×/NA 1.35 oil immersion objective. For fixed specimens (except for the images of FIG. 2), three-dimensional data sets were collected to visualize EBV vectors and DMs as they distributed in multiple focal planes. Optical sections were collected at 0.2-μm focal intervals; pixel size was 0.111 μm for 63× objective and 0.0669 μm for 100× objective. Out-of-focus contamination was removed from each optical section via deconvolution processing and two-dimensional images were created by projecting the three-dimensional data stacks using the software supplied with the DeltaVision system.
The ability to readily visualize DMs without using FISH protocol has enabled the investigation of the mechanisms that contribute to their behavior during mitosis. The possibility that DMs are held away from the spindle poles by the microtubule-mediated antipolar force, to which normal chromosome arms are also known to be subjected (Fuller, 1995; Rieder et al., 1986) was examined. DM-labelled cells were treated with either a microtubule stabilizer (taxol) or destabilizer (vinblastine). DMs and microtubules were visualized by lacR-GFP and immunofluorescence staining, respectively.

Take `CC(=O)O[C@H]1C(=O)[C@@]2(C)[C@H]([C@H](OC(=O)c3ccccc3)[C@]3(O)C[C@H](OC(=O)[C@H](O)[C@@H](NC(=O)c4ccccc4)c4ccccc4)C(C)=C1C3(C)C)[C@]1(OC(C)=O)CO[C@@H]1C[C@@H]2O` [taxol, paclitaxel]: the “appearance of microtubules (immunofluorescence)” value was “multiple aster-like structures”, the chromosome organization result is listed as “completely disrupted”, the “association of DMs with chromosomes” value is on record as “still associated closely with chromosomes” and the “peripheral localization of DMs on mitotic chromosomes” value is “no longer attached to the periphery of clustered chromosomes”.
As for `CC[C@]1(O)C[C@@H]2CN(CCc3c([nH]c4ccccc34)[C@@](C(=O)OC)(c3cc4c(cc3OC)N(C)[C@H]3[C@@](O)(C(=O)OC)[C@H](OC(C)=O)[C@]5(CC)C=CCN6CC[C@]43[C@@H]65)C2)C1` [vinblastine], the “appearance of microtubules (immunofluorescence)” value is “rod-like microtubules”, the chromosome organization entry was “completely disrupted”, the “association of DMs with chromosomes” value is reported as “still associated closely with chromosomes” and the “peripheral localization of DMs on mitotic chromosomes” value is given as “no longer attached to the periphery of clustered chromosomes”.
